Converted amounts (≈) assume the structure as drawn. Like-named read-outs stand apart in the source and are kept apart here.
How the values were obtained:
[1] = tested on: MGC-803; test: MTT antiproliferative assay, MGC-803; type: cell-based, human; conditions: mean ± SD of three experiments
Method: (§1) In totally, a series of novel chalcone-1,2,3-triazole-azole derivatives were successfully synthesized, and their structures characterized by ^1H-NMR, ^13C-NMR, HRMS. Their in vitro antiproliferative activities were then tested, using a MTT assay, against three selected cancer cell lines (SK-N-SH, EC-109 and MGC-803) and compared with the well-known anticancer drug 5-fluorouracil.
(§2) All synthesized compounds were evaluated for their anticancer activity against three cancer cell lines, MGC-803 (human gastric cancer cell line), SK-N-SH (human neuroendocrine cancer cell line), and […] (human esophageal cancer cell line) using MTT assay method and compared with the well-known anticancer drug 5-fluorouracil.

[2] = tested on: EC-109; test: MTT antiproliferative assay, EC-109; type: cell-based, human; conditions: mean ± SD of three experiments
Method: as §1, §2

[3] = tested on: SK-N-SH; test: MTT antiproliferative assay, SK-N-SH; type: cell-based, human; conditions: 72 h exposure, mean ± SD of three experiments
Method: as §1, §2

[4] = tested on: MCF-7; conditions: cited from earlier work
[5] = tested on: Bcl-2 and Bax in SK-N-SH cells; test: Western blot of Bcl-2 and Bax; type: cell-based, human; conditions: 48 h treatment
Method: Antiproliferative agents that induce apoptosis in cancer cells are always preferred in antitumor drug discovery. Bcl-2 associated proteins have both anti-apoptotic and pro-apoptotic effects in vrious cancer cell lines. For the high potent cytotoxic activity against SK-N-SH cell line, compound I-21 was evaluated the level of Bcl-2 (apoptotic inhibitor) and Bax (apoptotic inducer). […] Further mechanism investigations are under way and will be reported in due course.
Figure 6 Expression of Bcl-2 and Bax in SK-N-SH cells after treatment by compound I-21 for 48 h.

[6] = tested on: SK-N-SH, EC-109 and MGC-803; test: MTT antiproliferative assay, three cancer cell lines together; type: cell-based, human; conditions: range across EC-109, SK-N-SH, read-out: IC50 values, range over the three cancer cell lines
Method: as §1, §2

[7] = tested on: GES-1; test: Cytotoxicity against normal GES-1 cells; type: cell-based, human; conditions: for selectivity between cancer and normal cells: MGC-803 versus GES-1; for IC50: normal human gastric epithelial cell line, 72 h exposure, mean ± SD of three experiments
Description: Compounds I-14 and I-21 were further examined for possible cytotoxicity against GES-1 (normal human gastric epithelial cell line).

[8] = tested on: SK-N-SH cells; test: Apoptosis analysis with Hoechst-33258 staining; type: cell-based, human; conditions: SK-N-SH cells, 5, 10 and 20 μM; 24 h / 48 h (legend of Figure 5)
Method: To explore cytotoxicity of I-21 in SK-N-SH cells, cell apoptosis was investigated with Hoechst 33258 staining.
Figure 5 Apoptosis analysis with Hoechst-33258 staining after a 48 h treatment of I-21 in SK-N-SH cell line at 5 μM, 10 μM and 20 μM.

[9] = tested on: K562 cells; design: method as in PMID 19837593; conditions: cited from earlier work
[10] = tested on: SMMC-7721; design: method as in PMID 21345546; conditions: cited from earlier work
[11] = Homo sapiens, MGC-803, 72 h exposure
[12] = Homo sapiens, ECa-109, 72 h exposure

O=c1[nH]cc(F)c(=O)[nH]1 [Compound 5-FU, 5-fluorouracil, reference compound]
IC50 [1, 11]: 7.14 ± 0.28 µM
IC50 [2, 12]: 10.3 ± 0.32 µM
IC50 ([3]; Homo sapiens, SK-N-SH): 9.85 ± 0.76 µM

O=C(/C=C/c1cccnc1)c1ccc(OCCCn2cc(CSC3=NCCS3)nn2)cc1 [Compound I-15, (E)-1-(4-(3-(4-(((4,5-Dihydrothiazol-2-yl)thio)methyl)-1H-1,2,3-triazol-1-yl)propoxy)phenyl)-3-(pyridin-3-yl)prop-2-en-1-one]
melting point: 149 to 151 °C
IC50 [1, 11]: 63.8 ± 1.17 µM
IC50 [2, 12]: 42.36 ± 0.18 µM
IC50 ([3]; Homo sapiens, SK-N-SH): 47.3 ± 1.57 µM

O=C(/C=C/c1ccc(Cl)cc1)c1ccc(OCCCn2cc(CSc3nc4ccccc4s3)nn2)cc1 [Compound I-17]
melting point: 172 to 174 °C
IC50 [1, 11]: 38.2 ± 0.58 µM
IC50 [2, 12]: 9.54 ± 0.05 µM
IC50 ([3]; Homo sapiens, SK-N-SH): > 100 µM

O=C(/C=C/c1cccs1)c1ccc(OCCCn2cc(CSc3nncs3)nn2)cc1 [Compound I-23, (E)-1-(4-(3-(4-(((1,3,4-Thiadiazol-2-yl)thio)methyl)-1H-1,2,3-triazol-1-yl)propoxy)phenyl)-3-(thiophen-2-yl)prop-2-en-1-one]
IC50 [1, 11]: 15.1 ± 0.85 µM
IC50 [2, 12]: 57.2 ± 1.63 µM
IC50 ([3]; Homo sapiens, SK-N-SH): 21 ± 1.81 µM

Cn1nnnc1SCc1cn(CCCOc2ccc(C(=O)/C=C/c3cccs3)cc2)nn1 [Compound I-27, (E)-1-(4-(3-(4-(((1-Methyl-1H-tetrazol-5-yl)thio)methyl)-1H-1,2,3-triazol-1-yl)propoxy)phenyl)-3-(thiophen-2-yl)prop-2-en-1-one]
melting point: 129 to 130 °C
IC50 [1, 11]: 38.1 ± 0.91 µM
IC50 [2, 12]: > 100 µM
IC50 ([3]; Homo sapiens, SK-N-SH): 29.3 ± 0.85 µM

O=C(/C=C/c1cccs1)c1ccc(OCCCn2cc(CSc3nc4ccccc4s3)nn2)cc1 [Compound I-19, (E)-1-(4-(3-(4-((Benzo[d]thiazol-2-ylthio)methyl)-1H-1,2,3-triazol-1-yl)propoxy)phenyl)-3-(thiophen-2-yl)prop-2-en-1-one]
IC50 [1, 11]: 24.4 ± 0.71 µM
IC50 [2, 12]: 38.8 ± 1.05 µM
IC50 ([3]; Homo sapiens, SK-N-SH): 37.8 ± 0.91 µM

O=C(/C=C/c1ccccc1)c1ccccc1 [Compound 1]
IC50 MCF-7 [4]: 6.88 µg/mL (≈ 33 µM)

(E)-1-(4-(3-(4-(((1,3,4-Thiadiazol-2-yl)thio)methyl)-1H-1,2,3-triazol-1-yl)propoxy)phenyl)-3-(3,4,5-trimethoxyphenyl)prop-2-en-1-one [Compound I-21]
level of Bax [5]: increased the level of Bax
level of Bcl-2 [5]: reduced the level of Bcl-2
IC50 [6]: 1.52 to 10.4 µM
selectivity between cancer and normal cells [7]: good selectivity
IC50 [7]: 43.7 ± 1.35 µM
IC50 ([1]; 72 h exposure): 4.26 ± 0.32 µM
IC50 ([2]; 72 h exposure): 10.4 ± 0.24 µM
apoptotic morphological changes (Hoechst 33258 staining) [8]: characteristic apoptotic morphological changes
IC50 [3]: 1.52 ± 0.3 µM

O=C(/C=C/c1cccs1)c1ccc(OCCCn2cc(CSC3=NCCS3)nn2)cc1 [Compound I-16, (E)-1-(4-(3-(4-(((4,5-Dihydrothiazol-2-yl)thio)methyl)-1H-1,2,3-triazol-1-yl)propoxy)phenyl)-3-(thiophen-2-yl)prop-2-en-1-one]
melting point: 104 to 106 °C
IC50 [1, 11]: 8.69 ± 0.42 µM
IC50 [2, 12]: 19.3 ± 0.79 µM
IC50 ([3]; Homo sapiens, SK-N-SH): 11.2 ± 0.26 µM

COc1ccc(C(=O)/C=C/c2cc(OC)c(OC)c(OC)c2)cc1OC [Compound 2]
IC50 [9]: 1100 nM

Cn1nnnc1SCc1cn(CCCOc2ccc(C(=O)/C=C/c3cccnc3)cc2)nn1 [Compound I-26, (E)-1-(4-(3-(4-(((1-Methyl-1H-tetrazol-5-yl)thio)methyl)-1H-1,2,3-triazol-1-yl)propoxy)phenyl)-3-(pyridin-3-yl)prop-2-en-1-one]
melting point: 151 to 153 °C
IC50 [1, 11]: 5.56 ± 0.45 µM
IC50 [2, 12]: 11.8 ± 0.74 µM
IC50 ([3]; Homo sapiens, SK-N-SH): 4.49 ± 0.45 µM

Cn1nnnc1SCc1cn(CCCOc2ccc(C(=O)/C=C/c3ccc(Cl)cc3)cc2)nn1 [Compound I-24, (E)-3-(4-Chlorophenyl)-1-(4-(3-(4-(((1-methyl-1H-tetrazol-5-yl)thio)methyl)-1H-1,2,3-triazol-1-yl)propoxy)phenyl)prop-2-en-1-one]
melting point: 149 to 150 °C
IC50 [1, 11]: 50.1 ± 0.97 µM
IC50 [2, 12]: 24.9 ± 1.09 µM
IC50 ([3]; Homo sapiens, SK-N-SH): 28.4 ± 1.59 µM

O=C(/C=C/c1ccc(Cl)cc1)c1ccc(OCCCn2cc(CSc3nncs3)nn2)cc1 [Compound I-20, (E)-1-(4-(3-(4-(((1,3,4-Thiadiazol-2-yl)thio)methyl)-1H-1,2,3-triazol-1-yl)propoxy)phenyl)-3-(4-chlorophenyl)prop-2-en-1-one]
melting point: 143 to 145 °C
IC50 [1, 11]: 46.3 ± 1.64 µM
IC50 [2, 12]: 5.81 ± 0.21 µM
IC50 ([3]; Homo sapiens, SK-N-SH): 3.75 ± 1.21 µM

O=C(/C=C/c1ccc(Cl)cc1)c1ccc(OCCCn2cc(CSC3=NCCS3)nn2)cc1 [Compound I-13, (E)-3-(4-Chlorophenyl)-1-(4-(3-(4-(((4,5-dihydrothiazol-2-yl)thio)methyl)-1H-1,2,3-triazol-1-yl)propoxy)phenyl)prop-2-en-1-one]
melting point: 151 to 153 °C
IC50 [1, 11]: 37.2 ± 0.85 µM
IC50 [2, 12]: > 100 µM
IC50 ([3]; Homo sapiens, SK-N-SH): 19.3 ± 0.47 µM

COc1cc(/C=C/C(=O)c2ccc(OCCCn3cc(CSc4nnnn4C)nn3)cc2)cc(OC)c1OC [Compound I-25, (E)-1-(4-(3-(4-(((1-Methyl-1H-tetrazol-5-yl)thio)methyl)-1H-1,2,3-triazol-1-yl)propoxy)phenyl)-3-(3,4,5-trimethoxyphenyl)prop-2-en-1-one]
melting point: 105 to 107 °C
IC50 [1, 11]: 5.66 ± 0.55 µM
IC50 [2, 12]: 5.28 ± 0.56 µM
IC50 ([3]; Homo sapiens, SK-N-SH): 6.98 ± 0.4 µM

COc1cc(/C=C/C(=O)c2ccc(OCCCn3cc(CSC4=NCCS4)nn3)cc2)cc(OC)c1OC [Compound I-14, (E)-1-(4-(3-(4-(((4,5-Dihydrothiazol-2-yl)thio)methyl)-1H-1,2,3-triazol-1-yl)propoxy)phenyl)-3-(3,4,5-trimethoxyphenyl)prop-2-en-1-one]
melting point: 169 to 171 °C
IC50 ([6]; Homo sapiens): 3.57 to 8.52 µM
IC50 ([7]; GES1): > 64 µM
selectivity between cancer and normal cells [7]: good selectivity
IC50 [1, 11]: 8.52 ± 0.56 µM
IC50 [2, 12]: 3.57 ± 0.22 µM
IC50 ([3]; Homo sapiens, SK-N-SH): 5.87 ± 1.05 µM

O=C(NCc1cn(Cc2cccc(Oc3ccccc3)c2)nn1)c1ccccn1 [Compound 4]
IC50 [4]: 46 nM

CN(C)CCN1C(=O)c2cccc3cc(-n4cc(-c5ccccc5)nn4)cc(c23)C1=O [Compound 3]
IC50 [4]: 348 nM
IC50 [10]: 258 nM

O=C(/C=C/c1cccnc1)c1ccc(OCCCn2cc(CSc3nncs3)nn2)cc1 [Compound I-22, (E)-1-(4-(3-(4-(((1,3,4-Thiadiazol-2-yl)thio)methyl)-1H-1,2,3-triazol-1-yl)propoxy)phenyl)-3-(pyridin-3-yl)prop-2-en-1-one]
melting point: 146 to 149 °C
IC50 [1, 11]: 4.45 ± 0.82 µM
IC50 [2, 12]: 14.6 ± 1.21 µM
IC50 ([3]; Homo sapiens, SK-N-SH): 12.4 ± 0.44 µM

O=C(/C=C/c1cccnc1)c1ccc(OCCCn2cc(CSc3nc4ccccc4s3)nn2)cc1 [Compound I-18, (E)-1-(4-(3-(4-((Benzo[d]thiazol-2-ylthio)methyl)-1H-1,2,3-triazol-1-yl)propoxy)phenyl)-3-(pyridin-3-yl)prop-2-en-1-one]
melting point: 144 to 146 °C
IC50 [1, 11]: 6.24 ± 0.05 µM
IC50 [2, 12]: 24.6 ± 3.8 µM
IC50 ([3]; Homo sapiens, SK-N-SH): 14.8 ± 0.72 µM

Reference: article PMC6274517, “Design, Synthesis and Structure-Activity Relationships of Novel Chalcone-1,2,3-triazole-azole Derivates as Antiproliferative Agents” (Molecules, 2016)
